Data reported in publication PMC9656319, “Pharmacokinetics and Tissue Distribution of Coumarins from Tagetes lucida in an LPS-Induced Neuroinflammation Model” (Plants, 2022).

What was measured:
[1] = Stability of the analytes in spiked plasma, brain, kidney and spleen matrices (autosampler, long-term, freeze-thaw); assay type: physicochemical, mice; settings: for Stability Autosampler RE (%): processed samples in autosampler vials 24 h room temperature; for Stability Freeze-Thaw RE (%): three cycles (−4 °C to 25 °C); for Stability Long-Term RE (%): −70 °C for 30 days
Description: The stability of the compounds obtained from each enriched matrices at the QC concentrations was evaluated under different conditions that covered the processing, handling, and storage phases that could be developed throughout the study.
Individual stock solutions of PE, SC, DF, HR, PU, and rutin (IS) were prepared separately in methanol (1 mg/mL) and stored at −4 °C until use. From the stocks, a working solution in methanol was prepared at a concentration of 200 µg/mL of each coumarin. Blank plasma or organs supernatant samples (80 µL) were spiked with 20 µL of serial dilutions of working solution to obtain calibration curves ranging between 0.156, 0.312, 0.625, 1.25, 2.5, 5, 10, 20, and 40 µg/mL of each coumarin. Quality control (QC) samples were prepared at three levels of 0.3 (low), 3 (medium), and 30 (high) µg/mL for each coumarin.
The stability of the analytes in plasma, brain, kidneys, and spleen was evaluated by the analyzed concentrations of QC subjected to three different conditions. Short-term stability was determined by analysis of samples processed in the autosampler vials at 24 h at room temperature. Long-term stability was tested on samples stored at −70 °C for 30 days. Freeze-thaw stability was determined after three cycles (−4 °C to 25 °C) on three consecutive days.

[2] = Pharmacokinetic study in plasma after oral hexanic extract of Tagetes lucida, healthy and LPS-damaged mice; assay type: in vivo, ICR mice; settings: for amount of drug available in the plasma, LPS mice compared to healthy subjects / Cmax / AUC(0-inf) / MRT / Tmax / half-life / AUC(0-t) / Cl/F: 10 mg/kg oral hexanic extract; for amount of drug available in the plasma, LPS mice compared to healthy subjects: concentration-time profiles (Figure 3); for Cmax / AUC(0-inf) / MRT / Tmax / half-life / AUC(0-t): ICR, mouse, po, 10 mg/kg; for Cmax: non-compartmental; for Cmax / AUC(0-inf) / MRT / Tmax / half-life / AUC(0-t) / Cl/F: mean ± SEM (n = 5); for AUC(0-t): to 6 h
Description: The optimized HPLC-validated method for the quantification of coumarins present in the hexane extract of T. lucida was used to evaluate the concentration profiles over time in the plasma, brain, kidney, and spleen biological matrices after an oral administration of 10 mg/kg of the extract.
Blood samples were obtained from the retro-orbital sinus of mice and collected in heparinized tubes. Plasma was separated by centrifugation at 3500 rpm for 5 min and stored in new Eppendorf tubes at −70 °C, until further processing.
One hundred microliters of plasma and organs samples, spiked with calibration and QC concentration or samples from the pharmacokinetic study, were mixed with 300 µL of acetonitrile containing the IS at 10 µg/mL for protein precipitation, and vortexed for 3 min. Then, 200 µL of dichloromethane were added, for liquid–liquid extraction of the bioactive compounds, and vortexed for 5 min. The mixture was centrifuged at 14,000 rpm for 10 min, and the extracted organic layers were placed in new tubes, until completely dry at room temperature. For quantitative analysis, samples were resuspended in 100 µL of methanol, transferred to sampling vials, and injected into the chromatographic system, described below.
A pharmacokinetic study was carried out in sixty mice, divided in six subgroups, according to sample collection times. An acute inflammation process by the intraperitoneal (i.p.) administration of LPS at 2 mg/kg was induced in half of the mice per group, while the other half received an i.p. injection of saline solution. Ten min after the damage was induced, the mice were administered with an oral dose of 10 mg/kg of the bioactive fraction dissolved in a 1% Tween-20 aqueous solution. Blood and tissue samples were obtained and processed at 0, 0.25, 0.75, 1.5, 2, 4, and 6 h post-dosing, as indicated in the “Samples collection” and “Plasma and tissue samples processing” sections.
Pharmacokinetic parameters of PE, SC, DF, HR, and PU in plasma were calculated by PKSolver software.

[3] = plasma, LPS-damaged ICR mice (LPS 2 mg/kg i.p.)

COc1ccc2ccc(=O)oc2c1 [HR, herniarin]
Stability Autosampler RE (%) ([1]; brain, nominal 0.3 µg/mL): -3.47%
Stability Freeze-Thaw RE (%) ([1]; brain, nominal 0.3 µg/mL): -0.69%
Stability Long-Term RE (%) ([1]; brain, nominal 0.3 µg/mL): -0.21%
Stability Autosampler RE (%) ([1]; brain, nominal 3.0 µg/mL): 2.31%
Stability Freeze-Thaw RE (%) ([1]; brain, nominal 3.0 µg/mL): -5.14%
Stability Long-Term RE (%) ([1]; brain, nominal 3.0 µg/mL): -0.98%
Stability Autosampler RE (%) ([1]; brain, nominal 30.0 µg/mL): 3.86%
Stability Freeze-Thaw RE (%) ([1]; brain, nominal 30.0 µg/mL): -1.02%
Stability Long-Term RE (%) ([1]; brain, nominal 30.0 µg/mL): -4.72%
Stability Autosampler RE (%) ([1]; kidney, nominal 0.3 µg/mL): 8.17%
Stability Freeze-Thaw RE (%) ([1]; kidney, nominal 0.3 µg/mL): 2.03%
Stability Long-Term RE (%) ([1]; kidney, nominal 0.3 µg/mL): 5.12%
Stability Autosampler RE (%) ([1]; kidney, nominal 3.0 µg/mL): 2.81%
Stability Freeze-Thaw RE (%) ([1]; kidney, nominal 3.0 µg/mL): -0.62%
Stability Long-Term RE (%) ([1]; kidney, nominal 3.0 µg/mL): 3.06%
Stability Autosampler RE (%) ([1]; kidney, nominal 30.0 µg/mL): 1.35%
Stability Freeze-Thaw RE (%) ([1]; kidney, nominal 30.0 µg/mL): 2.25%
Stability Long-Term RE (%) ([1]; kidney, nominal 30.0 µg/mL): 3.32%
Stability Autosampler RE (%) ([1]; plasma, nominal 0.3 µg/mL): 8.34%
Stability Freeze-Thaw RE (%) ([1]; plasma, nominal 0.3 µg/mL): 0.67%
Stability Long-Term RE (%) ([1]; plasma, nominal 0.3 µg/mL): 9.39%
Stability Autosampler RE (%) ([1]; plasma, nominal 3.0 µg/mL): 12.83%
Stability Freeze-Thaw RE (%) ([1]; plasma, nominal 3.0 µg/mL): -7.90%
Stability Long-Term RE (%) ([1]; plasma, nominal 3.0 µg/mL): 3.99%
Stability Autosampler RE (%) ([1]; plasma, nominal 30.0 µg/mL): 14.32%
Stability Freeze-Thaw RE (%) ([1]; plasma, nominal 30.0 µg/mL): -5.47%
Stability Long-Term RE (%) ([1]; plasma, nominal 30.0 µg/mL): 3.55%
Stability Autosampler RE (%) ([1]; spleen, nominal 0.3 µg/mL): 5.46%
Stability Freeze-Thaw RE (%) ([1]; spleen, nominal 0.3 µg/mL): -0.63%
Stability Long-Term RE (%) ([1]; spleen, nominal 0.3 µg/mL): 0.22%
Stability Autosampler RE (%) ([1]; spleen, nominal 3.0 µg/mL): -0.16%
Stability Freeze-Thaw RE (%) ([1]; spleen, nominal 3.0 µg/mL): 4.87%
Stability Long-Term RE (%) ([1]; spleen, nominal 3.0 µg/mL): 7.44%
Stability Autosampler RE (%) ([1]; spleen, nominal 30.0 µg/mL): 1.18%
Stability Freeze-Thaw RE (%) ([1]; spleen, nominal 30.0 µg/mL): 0.49%
Stability Long-Term RE (%) ([1]; spleen, nominal 30.0 µg/mL): 2.92%
amount of drug available in the plasma, LPS mice compared to healthy subjects [2]: three-fold higher
Cmax [2, 3]: 1480 ± 190 ng/mL
AUC(0-inf) ([2]; plasma, LPS-damaged ICR mice): 3210 ± 380 ng·h/mL
MRT ([2]; plasma, LPS-damaged ICR mice): 2.77 ± 0.25 h
Tmax ([2]; plasma, LPS-damaged ICR mice): 0.25 h
half-life ([2]; plasma, LPS-damaged ICR mice): 1.49 ± 0.35 h
AUC(0-t) ([2]; plasma, LPS-damaged ICR mice): 2950 ± 280 ng·h/mL
AUC(0-inf) ([2]; plasma, healthy ICR mice): 1030 ± 140 ng·h/mL
MRT ([2]; plasma, healthy ICR mice): 2.77 ± 0.35 h
Tmax ([2]; plasma, healthy ICR mice): 0.95 ± 0.35 h
half-life ([2]; plasma, healthy ICR mice): 1.66 ± 0.46 h
Cmax ([2]; plasma, healthy ICR mice): 620 ± 340 ng/mL
AUC(0-t) ([2]; plasma, healthy ICR mice): 920 ± 120 ng·h/mL
Cl/F ([2]; plasma, LPS-damaged ICR mice): 32.50 ± 2.91 (mg/kg)/(μg/mL)/h
Cl/F ([2]; plasma, healthy ICR mice): 103.7 ± 13.0 (mg/kg)/(μg/mL)/h

COc1cc2ccc(=O)oc2c(OC)c1OC [DF, dimethylfraxetin]
Stability Autosampler RE (%) ([1]; brain, nominal 0.3 µg/mL): -4.07%
Stability Freeze-Thaw RE (%) ([1]; brain, nominal 0.3 µg/mL): 0.03%
Stability Long-Term RE (%) ([1]; brain, nominal 0.3 µg/mL): -0.62%
Stability Autosampler RE (%) ([1]; brain, nominal 3.0 µg/mL): 3.73%
Stability Freeze-Thaw RE (%) ([1]; brain, nominal 3.0 µg/mL): -6.72%
Stability Long-Term RE (%) ([1]; brain, nominal 3.0 µg/mL): 0.46%
Stability Autosampler RE (%) ([1]; brain, nominal 30.0 µg/mL): 3.21%
Stability Freeze-Thaw RE (%) ([1]; brain, nominal 30.0 µg/mL): -0.35%
Stability Long-Term RE (%) ([1]; brain, nominal 30.0 µg/mL): -4.35%
Stability Autosampler RE (%) ([1]; kidney, nominal 0.3 µg/mL): 5.83%
Stability Freeze-Thaw RE (%) ([1]; kidney, nominal 0.3 µg/mL): -0.65%
Stability Long-Term RE (%) ([1]; kidney, nominal 0.3 µg/mL): 5.19%
Stability Autosampler RE (%) ([1]; kidney, nominal 3.0 µg/mL): 4.79%
Stability Freeze-Thaw RE (%) ([1]; kidney, nominal 3.0 µg/mL): 0.82%
Stability Long-Term RE (%) ([1]; kidney, nominal 3.0 µg/mL): 8.12%
Stability Autosampler RE (%) ([1]; kidney, nominal 30.0 µg/mL): 0.66%
Stability Freeze-Thaw RE (%) ([1]; kidney, nominal 30.0 µg/mL): 0.47%
Stability Long-Term RE (%) ([1]; kidney, nominal 30.0 µg/mL): 5.67%
Stability Autosampler RE (%) ([1]; plasma, nominal 0.3 µg/mL): 2.59%
Stability Freeze-Thaw RE (%) ([1]; plasma, nominal 0.3 µg/mL): -12.33%
Stability Long-Term RE (%) ([1]; plasma, nominal 0.3 µg/mL): -6.74%
Stability Autosampler RE (%) ([1]; plasma, nominal 3.0 µg/mL): -1.38%
Stability Freeze-Thaw RE (%) ([1]; plasma, nominal 3.0 µg/mL): 2.47%
Stability Long-Term RE (%) ([1]; plasma, nominal 3.0 µg/mL): -3.13%
Stability Autosampler RE (%) ([1]; plasma, nominal 30.0 µg/mL): 4.21%
Stability Freeze-Thaw RE (%) ([1]; plasma, nominal 30.0 µg/mL): 0.49%
Stability Long-Term RE (%) ([1]; plasma, nominal 30.0 µg/mL): -3.40%
Stability Autosampler RE (%) ([1]; spleen, nominal 0.3 µg/mL): 6.88%
Stability Freeze-Thaw RE (%) ([1]; spleen, nominal 0.3 µg/mL): -0.67%
Stability Long-Term RE (%) ([1]; spleen, nominal 0.3 µg/mL): 5.43%
Stability Autosampler RE (%) ([1]; spleen, nominal 3.0 µg/mL): -1.66%
Stability Freeze-Thaw RE (%) ([1]; spleen, nominal 3.0 µg/mL): 0.49%
Stability Long-Term RE (%) ([1]; spleen, nominal 3.0 µg/mL): 7.09%
Stability Autosampler RE (%) ([1]; spleen, nominal 30.0 µg/mL): 1.50%
Stability Freeze-Thaw RE (%) ([1]; spleen, nominal 30.0 µg/mL): -1.06%
Stability Long-Term RE (%) ([1]; spleen, nominal 30.0 µg/mL): 7.60%
amount of drug available in the plasma, LPS mice compared to healthy subjects [2]: three-fold higher
Cmax [2, 3]: 1820 ± 270 ng/mL
AUC(0-inf) ([2]; plasma, LPS-damaged ICR mice): 3610 ± 400 ng·h/mL
MRT ([2]; plasma, LPS-damaged ICR mice): 2.72 ± 0.3 h
Tmax ([2]; plasma, LPS-damaged ICR mice): 0.6 ± 0.24 h
half-life ([2]; plasma, LPS-damaged ICR mice): 1.5 ± 0.37 h
AUC(0-t) ([2]; plasma, LPS-damaged ICR mice): 3250 ± 310 ng·h/mL
AUC(0-inf) ([2]; plasma, healthy ICR mice): 1710 ± 190 ng·h/mL
MRT ([2]; plasma, healthy ICR mice): 2.35 ± 0.33 h
Tmax ([2]; plasma, healthy ICR mice): 1.2 ± 0.31 h
half-life ([2]; plasma, healthy ICR mice): 0.98 ± 0.27 h
Cmax ([2]; plasma, healthy ICR mice): 580 ± 20 ng/mL
AUC(0-t) ([2]; plasma, healthy ICR mice): 1640 ± 170 ng·h/mL
pharmacokinetic characteristics in words ([2]; LPS-treated mice, plasma, Figure 3b, 3c): fast distribution and subsequent elimination
Cl/F ([2]; plasma, LPS-damaged ICR mice): 28.81 ± 2.51 (mg/kg)/(μg/mL)/h
increase in the Cmax in the damaged animals versus healthy ([2]; plasma, LPS-damaged vs healthy mice): up to three times more
Cl/F ([2]; plasma, healthy ICR mice): 62.45 ± 9.38 (mg/kg)/(μg/mL)/h
